Drawing on US6861420B2, “N-substituted 1,2,4,5-tetrahydro-1H-benzo[d]azepine compounds” (Pharmacia & Upjohn Company, priority 2001, dated 2005), this text covers melting point for 16 molecules.

SMILES strings stand for the structures.

For `O=C(NC1CN2CCC1CC2)N1CCc2ccccc2CC1` (stereo not shown), the melting point (as a rule, the temperature, or range, at which the solid turns liquid) is > 120 °C (dec.).

Turning to `O=C(N[C@@H]1CN2CCC1CC2)N1CCc2ccccc2CC1`, the melting point lay in the range of 128 to 132 °C.

For `Cc1ncccc1Oc1ccc(NC(=O)N2CCc3ccccc3CC2)cn1` [Example 1, N-{6-[(2-methylpyridin-3-yl)oxy]pyridin-3-yl}-1,2,4,5-tetrahydro-3H-3-benzazepine-3-carboxamide], the melting point was in the range of 171 to 173 °C.

Take `Cc1ncccc1Oc1ccc(NC(=O)N2CCc3ccc(-n4c(C)ccc4C)cc3CC2)cn1` [Example 2, 7-(2,5-Dimethyl-1H-pyrrol-1-yl)-N-{6-[(2-methylpyridin-3-yl)oxy]pyridin-3-yl}-1,2,4,5-tetrahydro-3H-3-benzazepine-3-carboxamide]: the melting point was 101 °C (dec.).

For `O=C(Nc1cccnc1)N1CCc2ccccc2CC1` [Example 5, 1,2,4,5-Tetrahydro-benzo[d]azepine-3-carboxylic acid pyridin-3-ylamide], the melting point was 144 to 146 °C.

As to `O=C(Nc1cccnc1Cl)N1CCc2ccccc2CC1` [Example 6, N-[2-Chloropyridin-3-yl]-1,2,4,5-tetrahydro-3H-3-benzazepine-3-carboxamide], the melting point lay within 120 to 122 °C.

`O=C(Nc1ccc(Cl)nc1)N1CCc2ccccc2CC1` [Example 7, N-(6-chloropyridin-3-yl)-1,2,4,5-tetrahydro-3H-3-benzazepine-3-carboxamide]: the melting point lay within 170 to 172 °C.

With `COc1ccc(Oc2ccc(NC(=O)N3CCc4ccccc4CC3)cn2)cc1` [Example 9, N-[6-(4-Methoxyphenoxy)pyridin-3-yl]-1,2,4,5-tetrahydro-3H-3-benzazepine-3-carboxamide], the melting point was in the range of 156 to 157 °C.

`O=C(Nc1ccc(Oc2ccc(Cl)cc2)nc1)N1CCc2ccccc2CC1` [Example 10, N-[6-(4-Chlorophenoxy)pyridin-3-yl]-1,2,4,5-tetrahydro-3H-3-benzazepine-3-carboxamide] gave a melting point of 135 to 137 °C.

`O=C(Nc1ccc(Oc2ccccc2F)nc1)N1CCc2ccccc2CC1` [Example 11, N-[6-(2-Fluorophenoxy)pyridin-3-yl]-1,2,4,5-tetrahydro-3H-3-benzazepine-3-carboxamide] showed a melting point of 170 to 172 °C.

The molecule `CC(C)Oc1ccccc1Oc1ccc(NC(=O)N2CCc3ccccc3CC2)cn1` [Example 12, N-[6-(2-isopropoxyphenoxy)pyridin-3-yl]-1,2,4,5-tetrahydro-3H-3-benzazepine-3-carboxamide] returned a melting point of 149 to 152 °C.

`Cc1cc(Cl)ccc1Oc1ccc(NC(=O)N2CCc3ccccc3CC2)cn1` [Example 13, N-[6-(2-Methyl-4-chlorophenoxy)pyridin-3-yl]-1,2,4,5-tetrahydro-3H-3-benzazepine-3-carboxamide] yielded a melting point of 151 to 153 °C.

On to `Cc1cc(Oc2ccc(NC(=O)N3CCc4ccccc4CC3)cn2)ccc1Cl` [Example 14, N-[6-(3-Methyl-4-chlorophenoxy)pyridin-3-yl]-1,2,4,5-tetrahydro-3H-3-benzazepine-3-carboxamide], for which the melting point lay in the range of 171 to 173 °C.

As for `O=C(Nc1ccc(Oc2ccc(Cl)cc2Cl)nc1)N1CCc2ccccc2CC1` [Example 15, N-[6-(2,4-Dichlorophenoxy)pyridin-3-yl]-1,2,4,5-tetrahydro-3H-3-benzazepine-3-carboxamide], the melting point lay in the range of 154 to 155 °C.

For the molecule `Cc1cc(Oc2ccc(NC(=O)N3CCc4ccccc4CC3)cn2)cc(C)c1Cl` [Example 16, N-[6-(4-Chloro-3,5-dimethylphenoxy)pyridin-3-yl]-1,2,4,5-tetrahydro-3H-3-benzazepine-3-carboxamide], the melting point lay in the range of 208 to 209 °C.

For `O=C(NC1CCCNC1)N1CCc2ccccc2CC1` (stereo not shown) [Example 17, N-Piperidin-3-yl-1,2,4,5-tetrahydro-3H-3-benzazepine-3-carboxamide], the melting point fell in the range of 214 to 216 °C.
